“And” between values parts separate entries of the source, which are not always exact repeats. Identical values can stand only once. Toxic doses and inconclusive results are not listed. No stated cut-off is given here; in the data, active means T/C of 150% or more; inactive means T/C below 125%. Square brackets hold non-standard residues; d marks the D form. Peptide text beside a SMILES is read from it. * marks the point of attachment. ξ: configuration not given here. ξF = NC(Cc1ccccc1)C(=O)O; Cbz = O=C(OCc1ccccc1)*; OBn = c1ccc(CO*)cc1
Test system: L1210 leukemia ip in BDF1 mice, survival T/C
Experiment: NCI In Vivo Anticancer Drug Screen. Data for tumor model L1210 Leukemia (intraperitoneal) in B6D2F1 (BDF1) mice
Conditions: endpoint: mean survival time, higher = longer survival
In short: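 Mice bearing the transplanted tumor received compound or vehicle. Survival of the treated group was divided by that of the vehicle-treated control group to give the ratio.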

[1] = dose: 50.0 mg/kg/injection, schedule: Q01DX009 (ip), vehicle: saline with Tween-80
[2] = dose: 100.0 mg/kg/injection, schedule: Q01DX009 (ip), vehicle: saline with Tween-80
[3] = dose: 200.0 mg/kg/injection, schedule: Q01DX009 (ip), vehicle: saline with Tween-80
[4] = dose: 100.0 mg/kg/injection, schedule: Q04DX003 (ip), vehicle: saline with Tween-80
[5] = dose: 200.0 mg/kg/injection, schedule: Q04DX003 (ip), vehicle: saline with Tween-80
[6] = dose: 400.0 mg/kg/injection, schedule: Q01DX009 (ip), vehicle: saline with Tween-80
[7] = dose: 400.0 mg/kg/injection, schedule: Q04DX003 (ip), vehicle: saline with Tween-80
[8] = dose: 100.0 mg/kg/injection, schedule: Q01DX001 (ip), vehicle: saline
[9] = dose: 200.0 mg/kg/injection, schedule: Q01DX001 (ip), vehicle: saline
[10] = dose: 400.0 mg/kg/injection, schedule: Q01DX001 (ip), vehicle: saline
[11] = dose: 25.0 mg/kg/injection, schedule: Q04DX003 (ip), vehicle: saline with Tween-80
[12] = dose: 50.0 mg/kg/injection, schedule: Q04DX003 (ip), vehicle: saline with Tween-80
[13] = dose: 100.0 mg/kg/injection, schedule: Q01DX009 (ip), vehicle: Klucel (hydroxypropylcellulose) (HPC)
[14] = dose: 200.0 mg/kg/injection, schedule: Q01DX009 (ip), vehicle: Klucel (hydroxypropylcellulose) (HPC)
[15] = dose: 400.0 mg/kg/injection, schedule: Q01DX009 (ip), vehicle: Klucel (hydroxypropylcellulose) (HPC)
[16] = dose: 100.0 mg/kg/injection, schedule: Q04DX003 (ip), vehicle: saline
[17] = dose: 200.0 mg/kg/injection, schedule: Q04DX003 (ip), vehicle: saline
[18] = dose: 400.0 mg/kg/injection, schedule: Q04DX003 (ip), vehicle: saline
[19] = dose: 100.0 mg/kg/injection, schedule: Q04DX003 (ip), vehicle: Klucel (hydroxypropylcellulose) (HPC)
[20] = dose: 200.0 mg/kg/injection, schedule: Q04DX003 (ip), vehicle: Klucel (hydroxypropylcellulose) (HPC)
[21] = dose: 400.0 mg/kg/injection, schedule: Q04DX003 (ip), vehicle: Klucel (hydroxypropylcellulose) (HPC)
[22] = dose: 50.0 mg/kg/injection, schedule: Q01DX009 (ip), vehicle: saline
[23] = dose: 100.0 mg/kg/injection, schedule: Q01DX009 (ip), vehicle: saline
[24] = dose: 200.0 mg/kg/injection, schedule: Q01DX009 (ip), vehicle: saline

Measured: T/C

Cc1ccc(N=C=C(c2ccc(Cl)cc2)c2ccc(Cl)cc2)cc1
inactive: dose: 1.56 mg/kg/injection, schedule: Q01DX009 (ip), vehicle: DMSO 104 % of control | dose: 3.12 mg/kg/injection, schedule: Q01DX009 (ip), vehicle: DMSO 93 % of control | dose: 6.25 mg/kg/injection, schedule: Q01DX009 (ip), vehicle: DMSO 97 % of control and 103 % of control | dose: 12.5 mg/kg/injection, schedule: Q04DX002 (ip), vehicle: DMSO 105 % of control | dose: 25.0 mg/kg/injection, schedule: Q04DX002 (ip), vehicle: DMSO 109 % of control

O=C1c2ccccc2CCC1C1(O)C(=O)Nc2ccccc21 (configuration not stated)
inactive: [1] 104 % of control | [2] 101 % of control | [3] 93 % of control

O=[N+]([O-])c1cc[n+]([O-])c(Br)c1
inactive: [2] 98 % of control | [4] 108 % of control | [3] 103 % of control | [5] 101 % of control | [6] 97 % of control | [7] 93 % of control

CCOC(=O)C(Cc1ccc(O)c([N+](=O)[O-])c1)N1C(=O)c2ccccc2C1=O (configuration not stated)
inactive: [8] 107 % of control | [9] 92 % of control | [10] 95 % of control

c1cc2c3c(c1)nc(CCCc1nc4cccc5c4n1CCC5)n3CCC2
inactive: [11] 109 % of control | [12] 96 % of control | [4] 93 % of control and 87 % of control

CCOC(=O)CCC(NC(=O)Cc1ccc(NC(=O)C(F)(F)F)cc1)C(=O)OCC (configuration not stated)
inactive: [13] 105 % of control | [14] 96 % of control | [15] 98 % of control

CCCCCCCCCCCCCCCCCC(=O)NN=C1CCCC1
inactive: [13] 95 % of control | [14] 93 % of control | [15] 107 % of control

Cc1ccc(S(=O)(=O)NC(=O)Oc2c(C(C)C)cccc2C(C)C)cc1
inactive: dose: 50.0 mg/kg/injection, schedule: Q04DX003 (ip), vehicle: saline 110 % of control | [16] 110 % of control | [17] 102 % of control

CCCCCCCCOP(OCCCCCCCC)OCCCCCCCC
inactive: [16] 95 % of control | [17] 98 % of control | [18] 104 % of control

O=C(N/N=C/c1ccc2c(c1)CCC2)c1cccc(O)c1
inactive: [19] 96 % of control | [20] 95 % of control | [21] 91 % of control

CC(c1ccccc1)C1CCCCC1 (configuration not stated)
inactive: dose: 100.0 mg/kg/injection, schedule: Q01DX001 (ip), vehicle: saline with Tween-80 96 % of control | dose: 200.0 mg/kg/injection, schedule: Q01DX001 (ip), vehicle: saline with Tween-80 96 % of control | dose: 400.0 mg/kg/injection, schedule: Q01DX001 (ip), vehicle: saline with Tween-80 91 % of control

COc1cc(CC(=O)N(C)C)c([N+](=O)[O-])cc1OC
inactive: [8] 87 % of control | [9] 93 % of control | [10] 93 % of control

CC1C(=O)OC2CC[N+]3(C)CC=C(COC(=O)C(C)(O)C1(C)O)C23 (configuration not stated)
inactive: [22] 92 % of control | [23] 100 % of control | [24] 92 % of control

O=C(CCl)NCCCNC(=O)CCl
inactive: dose: 6.25 mg/kg/injection, schedule: Q01DX009 (ip), vehicle: other 94 % of control | dose: 12.5 mg/kg/injection, schedule: Q01DX009 (ip), vehicle: other 94 % of control | dose: 25.0 mg/kg/injection, schedule: Q01DX009 (ip), vehicle: other 94 % of control | [11] 98 % of control | [12] 102 % of control | [4] 111 % of control

Cc1ccc(/C=N/NC(=O)c2ccc(N=NN(C)C)cc2)cc1
inactive: dose: 50.0 mg/kg/injection, schedule: Q04DX003 (ip), vehicle: Klucel (hydroxypropylcellulose) (HPC) 95 % of control | [19] 99 % of control | [20] 100 % of control

O=C(/C(=C\c1ccccc1)c1ccccc1)c1ccc(O)cc1
inactive: [8] 98 % of control | [9] 101 % of control | [10] 101 % of control

CC(=O)Oc1c2ccccc2cc2ccccc12
inactive: dose: 100.0 mg/kg/injection, schedule: Q04DX002 (ip), vehicle: Klucel (hydroxypropylcellulose) (HPC) 114 % of control | dose: 400.0 mg/kg/injection, schedule: Q04DX002 (ip), vehicle: Klucel (hydroxypropylcellulose) (HPC) 118 % of control

NC(=O)N1C(=O)C2C3C=CC(O3)C2C1=O (configuration not stated)
inactive: [23] 96 % of control | [16] 98 % of control | [24] 95 % of control | [17] 101 % of control | [18] 101 % of control

BrP(Nc1ccccc1)(c1ccccc1)(c1ccccc1)c1ccccc1
inactive: dose: 10.0 mg/kg/injection, schedule: Q01DX001 (ip), vehicle: acetone 100 % of control | dose: 20.0 mg/kg/injection, schedule: Q01DX001 (ip), vehicle: acetone 101 % of control | dose: 40.0 mg/kg/injection, schedule: Q01DX001 (ip), vehicle: acetone 91 % of control

CSc1nc(C)c(NC(C)=O)c(=O)[nH]1
inactive: dose: 50.0 mg/kg/injection, schedule: Q01DX001 (ip), vehicle: saline 98 % of control | [8] 101 % of control | [9] 98 % of control | [10] 104 % of control

NC(=O)CCNCCSC(=O)c1ccccc1
inactive: [4] 102 % of control | [5] 100 % of control | [7] 96 % of control

Cc1cc(C(=O)c2ccccn2)c2cccc(C(F)(F)F)c2n1
inactive: [1] 94 % of control | [2] 102 % of control | [4] 92 % of control | [3] 100 % of control | [5] 88 % of control

O=C(CNC(=O)OCc1ccccc1)NC(Cc1ccccc1)C(=O)OCc1ccccc1 (stereo not drawn) (Cbz-Gly-[ξF]-OBn)
inactive: [4] 101 % of control | [5] 103 % of control | [7] 95 % of control

CC(=O)Oc1oc(-c2ccccc2)nc1-c1ccccc1
inactive: [2] 108 % of control | [4] 98 % of control | [3] 94 % of control | [5] 100 % of control | [6] 97 % of control | [7] 104 % of control

O=c1cc(CN2CCN(CCO)CC2)[nH]c(=O)[nH]1
inactive: [16] 101 % of control | [17] 95 % of control | [18] 95 % of control

Cc1ccc(N=NNc2ccc(C)cc2)cc1
inactive: dose: 25.0 mg/kg/injection, schedule: Q01DX009 (ip), vehicle: Klucel (hydroxypropylcellulose) (HPC) 96 % of control | dose: 50.0 mg/kg/injection, schedule: Q01DX009 (ip), vehicle: Klucel (hydroxypropylcellulose) (HPC) 97 % of control | dose: 75.0 mg/kg/injection, schedule: Q04DX003 (ip), vehicle: Klucel (hydroxypropylcellulose) (HPC) 100 % of control | [13] 97 % of control | dose: 150.0 mg/kg/injection, schedule: Q04DX003 (ip), vehicle: Klucel (hydroxypropylcellulose) (HPC) 100 % of control | dose: 300.0 mg/kg/injection, schedule: Q04DX003 (ip), vehicle: Klucel (hydroxypropylcellulose) (HPC) 100 % of control

CCCCCC(C)O[Si](C)C1(C)CCCCC1 (configuration not stated)
inactive: [4] 94 % of control | [5] 94 % of control | [7] 104 % of control

Cc1cccc(N=C(N)N=C(N)N)c1
inactive: [4] 102 % of control | [5] 88 % of control

COC(=O)/C=C(\C)Nc1ccc(-c2ccccc2)cc1
inactive: [22] 103 % of control | [8] 97 % of control | [23] 102 % of control | [16] 101 % of control | [9] 95 % of control | [24] 100 % of control | [17] 97 % of control | [10] 92 % of control | [18] 97 % of control

O=C(NNC(=O)OCc1ccccc1)OCc1ccccc1
inactive: [13] 104 % of control | [19] 97 % of control | [14] 113 % of control | [20] 97 % of control | [21] 97 % of control

COc1ccc(OC)c(NC(=O)c2cccc(N(CCCl)CCCl)c2)c1
inactive: dose: 100.0 mg/kg/injection, schedule: Q01DX001 (ip), vehicle: other 98 % of control | dose: 200.0 mg/kg/injection, schedule: Q01DX001 (ip), vehicle: other 95 % of control | dose: 400.0 mg/kg/injection, schedule: Q01DX001 (ip), vehicle: other 104 % of control

CCOC(=O)CSc1nc2nc(Cl)c(Cl)nc2[nH]1
inactive: dose: 25.0 mg/kg/injection, schedule: Q01DX009 (ip), vehicle: saline with Tween-80 104 % of control | [1] 98 % of control | [2] 105 % of control | [3] 96 % of control

— PubChem BioAssay AID248 (DTP/NCI, 2004)
